Where a SMILES comes first, the peptide text is derived from it. The star is where a group is joined. X1 = C/C(=C\C*)CC/C=C(\C)COCc1ccc(C(=O)c2ccccc2)cc1; X3 = C/C(=C\C*)CC/C=C(\C)COCc1cccc(C(=O)c2ccccc2)c1; Biotin = O=C1N[C@H]2[C@H](CS[C@H]2CCCCC(=O)*)N1; X2 = C/C(=C\C*)COCc1cccc(C(=O)c2ccccc2)c1; X4 = C/C(=C\C*)COCc1ccc(C(=O)c2ccccc2)cc1; PEG4 = NCCOCCOCCOCCOCCC(=O)O
Tests used:
human Icmt (hIcmt) = settings: cited from earlier work
[1] = target: T1, His10myc3N-Ste14p (His-Ste14p) (Saccharomyces cerevisiae, UniProt P32584); settings: read-out: Km(app); AFC positive control; ± S.D.; cited from earlier work
T1 sequence (P32584 1-239): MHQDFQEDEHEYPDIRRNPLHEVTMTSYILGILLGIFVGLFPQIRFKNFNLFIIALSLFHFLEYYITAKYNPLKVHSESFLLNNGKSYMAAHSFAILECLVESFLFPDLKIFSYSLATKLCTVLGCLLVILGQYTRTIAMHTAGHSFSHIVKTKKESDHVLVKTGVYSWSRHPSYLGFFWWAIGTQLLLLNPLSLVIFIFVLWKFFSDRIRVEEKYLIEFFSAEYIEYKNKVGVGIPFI

[2] = target: T2, His10myc3N-hIcmt (His-hIcmt) (Homo sapiens, UniProt O60725); settings: AFC; ± S.D.; cited from earlier work
T2 sequence (O60725 whole entry, the tested form may be a part): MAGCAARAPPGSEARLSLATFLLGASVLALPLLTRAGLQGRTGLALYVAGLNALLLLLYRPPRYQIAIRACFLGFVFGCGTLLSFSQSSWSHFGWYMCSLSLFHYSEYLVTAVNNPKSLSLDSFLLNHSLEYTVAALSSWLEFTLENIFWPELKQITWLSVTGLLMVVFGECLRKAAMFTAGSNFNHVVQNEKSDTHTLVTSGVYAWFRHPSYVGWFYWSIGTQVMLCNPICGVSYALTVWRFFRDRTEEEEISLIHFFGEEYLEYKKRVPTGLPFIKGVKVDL

[3] = target: T1, His10myc3N-Ste14p (His-Ste14p); experiment: In vitro methyltransferase vapor diffusion assay, substrate kinetics, His-Ste14p; format: biochemical, S. cerevisiae; settings: for Vmax: crude yeast membranes expressing His-Ste14p; for Fold lower Km of para- vs meta-substituted benzophenone a-factor analogs: His-Ste14p, vs meta-substituted analogs (7a, 8a)
yeast Icmt = settings: cited from earlier work
[4] = target: T2, His10myc3N-hIcmt (His-hIcmt); experiment: Inhibition of His-hIcmt methyltransferase activity; format: biochemical
His-Icmt = experiment: Competition of photolabeling by 8b with AFC, His-hIcmt; format: binding, human; settings: 8b 200 μM, increasing AFC; data not shown

Row | SMILES | Substrate of human Icmt (in words) (human Icmt (hIcmt)) | Vmax [3] | Substrate of yeast Icmt (in words) (yeast Icmt) | Inhibition of His-hIcmt (in words) [4] | other results
1 | CC(=O)N[C@@H](CSC/C=C(\C)CC/C=C(\C)CCC=C(C)C)C(=O)O [Compound 1, N-acetyl-S-farnesyl-L-cysteine] | substrates for both human and yeast Icmts | 869 pmol/min/mg | substrates for both human and yeast Icmts | – | Km [1]: 15.9 ± 0.9 µM; Km [2]: 10.3 ± 0.5 µM
2 | CC(C)=CCCC(C)=CCCC(C)=CCSCCC(=O)O [FTP, farnesyl thiopropionic acid] | substrates for both human and yeast Icmts | – | substrates for both human and yeast Icmts | – | –
3 | CC[C@H](C)[C@H](NC(=O)[C@H](Cc1ccc(O)cc1)NC(=O)CCOCCOCCOCCOCCNC(=O)CCCC[C@@H]1SC[C@@H]2NC(=O)N[C@@H]21)C(=O)N[C@H](C(=O)N[C@@H](CCCCN)C(=O)NCC(=O)N[C@H](C(=O)N[C@@H](Cc1ccccc1)C(=O)N[C@@H](Cc1c[nH]c2ccccc12)C(=O)N[C@@H](CC(=O)O)C(=O)N1CCC[C@H]1C(=O)N[C@@H](C)C(=O)N[C@@H](CSC/C=C(\C)COCc1cccc(C(=O)c2ccccc2)c1)C(=O)O)C(C)C)[C@@H](C)CC [Compound 7a, Biotin-Peg4-YIIKGVFWDPAC(C5-meta-Bp)] ({Biotin-PEG4}-YIIKGVFWDPAC(X2)-OH) | – | 473 pmol/min/mg | – | poor inhibitors of His-hIcmt | –
4 | CC[C@H](C)[C@H](NC(=O)[C@H](Cc1ccc(O)cc1)NC(=O)CCOCCOCCOCCOCCNC(=O)CCCC[C@@H]1SC[C@@H]2NC(=O)N[C@@H]21)C(=O)N[C@H](C(=O)N[C@@H](CCCCN)C(=O)NCC(=O)N[C@H](C(=O)N[C@@H](Cc1ccccc1)C(=O)N[C@@H](Cc1c[nH]c2ccccc12)C(=O)N[C@@H](CC(=O)O)C(=O)N1CCC[C@H]1C(=O)N[C@@H](C)C(=O)N[C@@H](CSC/C=C(\C)CC/C=C(\C)COCc1cccc(C(=O)c2ccccc2)c1)C(=O)O)C(C)C)[C@@H](C)CC [Compound 8a, Biotin-Peg 4-YIIKGVFWDPAC(C10-meta-Bp)] ({Biotin-PEG4}-YIIKGVFWDPAC(X3)-OH) | – | 762 pmol/min/mg | – | relatively potent | –
5 | CC(=O)N[C@@H](CSC/C=C(\C)CC/C=C(\C)CC/C=C(\C)CCC=C(C)C)C(=O)O [AGGC, N-acetyl-S-geranylgeranyl-L-cysteine] | substrates for both human and yeast Icmts | – | substrates for both human and yeast Icmts | – | –
6 | CC[C@H](C)[C@H](NC(=O)[C@H](Cc1ccc(O)cc1)NC(=O)CCOCCOCCOCCOCCNC(=O)CCCC[C@@H]1SC[C@@H]2NC(=O)N[C@@H]21)C(=O)N[C@H](C(=O)N[C@@H](CCCCN)C(=O)NCC(=O)N[C@H](C(=O)N[C@@H](Cc1ccccc1)C(=O)N[C@@H](Cc1c[nH]c2ccccc12)C(=O)N[C@@H](CC(=O)O)C(=O)N1CCC[C@H]1C(=O)N[C@@H](C)C(=O)N[C@@H](CSC/C=C(\C)CC/C=C(\C)COCc1ccc(C(=O)c2ccccc2)cc1)C(=O)O)C(C)C)[C@@H](C)CC [Compound 8b, Biotin-Peg4-YIIKGVFWDPAC(C10-para-Bp)] ({Biotin-PEG4}-YIIKGVFWDPAC(X1)-OH) | – | – | – | relatively potent | Fold lower Km of para- vs meta-substituted benzophenone a-factor analogs [3]: 2 – 3 times lower; Mode of inhibition (in words) (His-Icmt): competitive inhibitor; Photolabeling by 8b in presence of AFC (in words) (His-Icmt): decreased with increasing AFC concentration
7 | CC[C@H](C)[C@H](NC(=O)[C@H](Cc1ccc(O)cc1)NC(=O)CCOCCOCCOCCOCCNC(=O)CCCC[C@@H]1SC[C@@H]2NC(=O)N[C@@H]21)C(=O)N[C@H](C(=O)N[C@@H](CCCCN)C(=O)NCC(=O)N[C@H](C(=O)N[C@@H](Cc1ccccc1)C(=O)N[C@@H](Cc1c[nH]c2ccccc12)C(=O)N[C@@H](CC(=O)O)C(=O)N1CCC[C@H]1C(=O)N[C@@H](C)C(=O)N[C@@H](CSC/C=C(\C)COCc1ccc(C(=O)c2ccccc2)cc1)C(=O)O)C(C)C)[C@@H](C)CC [Compound 7b, Biotin-Peg4-YIIKGVFWDPAC(C5-para-Bp)] ({Biotin-PEG4}-YIIKGVFWDPAC(X4)-OH) | – | – | – | poor inhibitors of His-hIcmt | Fold lower Km of para- vs meta-substituted benzophenone a-factor analogs [3]: 2 – 3 times lower

Reference: article PMC3718205 (Biochemical and biophysical research communications, 2012)
